# Patent US4889941A, “Synthetic flavonoids as inhibitors of leukotrienes and 5-lipoxygenase” (Fisons Corporation, priority 1987, dated 1989)
# Counter-ions that a name gives are not always drawn.
# Key:
# leukotriene C4 (LTC4) = assay: Inhibition of LTC4-induced guinea pig ilial contractions; format: cell-based; conditions: Cavia porcellus, LTC4 6 nanomolar, read-out: percent inhibition of LTC4-induced contraction
# Procedure: Test for Inhibition of LTC4 -Induced Guinea Pig Ilial Contractions
# The evaluation of potential anti-allergic compounds for antagonism of the in vitro effects of leukotriene C4 (LTC4) is conducted according to the following procedure. Guinea pig ilial strips are obtained from recently killed animals and hung in isolated tissue baths comprising a balanced solution of salts such as Krebs' solution. After allowing for one hour equilibration of the tissue in the bath, the gram tension (G.T.) on one tissue is arbitrarily set at one. LTC4 (6 nanomolar concentration) is then added to the tissue bath. This induces a long, sustained contraction of the tissue that is measured on the strip chart recorder (the G.T. increases to about 2). After the LTC4 -induced contraction has plateaued and remains stable, increasing amounts of the test compound are added to the bath. If the compound is effective, a decrease in the G.T. (Δ G.T.) from the LTC4 -induced value is seen (e.g., from 2 to 1.5). The percent inhibition at each concentration is calculated according to the formula: [formula] Four replicate tissues are run.
# [1] = tested on: edema in a rat anaphylaxis test; assay: Rat anaphylaxis test (paw edema after bovine serum albumin challenge); format: in vivo; conditions: for activity in the rat anaphylaxis test: administered as a suspension
# Procedure: Groups of 15-20 rats are intraperitoneally sensitized with 500 μg of bovine serum albumin-absorbed alum admixed with 2×10^10 killed Bordetella pertussis vaccine organisms. Fourteen days later, the paw volume is measured using a mercury plethysmometer. Immediately thereafter, the test compound suspended in about 1 ml of 1% Clearjel ("Instant Clearjel", a food grade pregelatinized starch from National Starch and Chemical Corporation, New York, N.Y.) at 100 mg/kg is administered ip and, one hour later, the right hind paw is injected subcutaneously with 100 μg of bovine serum albumin dissolved in 0.1 ml of saline. (In controls, no test compound is suspended in the Clearjel.) The paw volume is remeasured 90 minutes post antigenic challenge to determine the volume increase (Δ V) since the first measurement. The percent inhibition of edema is [formula] The effect of theophylline (90 mg/kg, po) is tested as a positive control.
# [2] = Solubility in the balanced salts solution of the tissue bath; format: physicochemical; conditions: balanced salts solution of the LTC4 ilial assay
# 5-lipoxygenase = target: T1, 5-lipoxygenase (Homo sapiens, UniProt P09917); assay: Inhibition of 5-lipoxygenase (5-HETE formation from arachidonic acid, HPLC); format: biochemical; conditions: arachidonic acid 1 mg/ml, pH 7.4, 6 minutes at 30° C.
# T1 sequence (P09917 1-674): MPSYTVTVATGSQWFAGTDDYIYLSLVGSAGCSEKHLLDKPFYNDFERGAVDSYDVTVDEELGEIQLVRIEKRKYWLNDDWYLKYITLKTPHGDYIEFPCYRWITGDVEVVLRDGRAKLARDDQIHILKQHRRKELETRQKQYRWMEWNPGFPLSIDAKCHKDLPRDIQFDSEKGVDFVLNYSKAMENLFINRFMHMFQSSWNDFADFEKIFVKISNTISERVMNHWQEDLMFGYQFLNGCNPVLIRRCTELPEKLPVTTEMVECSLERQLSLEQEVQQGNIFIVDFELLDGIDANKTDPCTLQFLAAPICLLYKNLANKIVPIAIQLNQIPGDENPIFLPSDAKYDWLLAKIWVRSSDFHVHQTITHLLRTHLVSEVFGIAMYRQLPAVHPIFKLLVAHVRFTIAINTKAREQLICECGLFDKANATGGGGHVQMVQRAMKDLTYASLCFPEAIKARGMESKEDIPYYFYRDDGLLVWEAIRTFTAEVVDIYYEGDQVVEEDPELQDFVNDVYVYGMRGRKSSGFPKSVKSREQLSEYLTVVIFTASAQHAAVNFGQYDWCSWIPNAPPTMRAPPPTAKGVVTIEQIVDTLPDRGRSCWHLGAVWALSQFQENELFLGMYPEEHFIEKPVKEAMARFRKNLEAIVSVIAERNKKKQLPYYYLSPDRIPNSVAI
# Procedure: Test for Inhibition of 5-Lipoxygenase
# This test is based on the procedure of Arai et al., J. Med. Chem., Vol. 26, 72 (1983).
# Arachidonic acid in the presence of the enzyme 5-lipoxygenase is converted to 5-hydroxy-eicosatetraenoic acid (5-HETE) through a 2-step process. To assess the activity of a test compound on 5-lipoxygenase activity, a specific concentration of the test compound is added to 1 mg/ml of arachidonic acid in the presence of the appropriate amount of 5-lipoxygenase in a solution of potassium phosphate buffer containing 1 mM CaCl2 at pH 7.4. The reaction is carried out for 6 minutes at 30° C. in a total volume of 500 μl. The reaction is stopped by addition of lM citric acid. The 5-HETE is extracted and quantitated using high performance liquid chromatography. The percent activity is calculated as follows: [formula]
compound,measurement,setting,value
"COc1ccc(CCNCC(O)COc2ccc3c(=O)cc(-c4ccccc4)oc3c2)cc1OC (stereo not shown) [Example 1, 7-[3-[(3,4-dimethoxyphenethyl)amino]-2-hydroxypropoxy]flavone Maleate]",inhibition at 10 µM,leukotriene C4 (LTC4); final tissue bath concentration 1×10^-5 M,94%
same,inhibition at 1 µM,leukotriene C4 (LTC4); final tissue bath concentration 1×10^-6 M,52.3%
same,inhibition at 5 µM,leukotriene C4 (LTC4); final tissue bath concentration 5×10^-6 M,89.8%
"O=c1cc(-c2ccccc2)oc2cc(OCC(O)CNCC(O)COc3ccccc3)ccc12 (stereo not shown) [Example 11, 7-[3-[3-phenoxy-2-(hydroxypropyl)amino]-2-hydroxypropoxy]flavone Hydrochloride]",activity in the rat anaphylaxis test,[1],active
same,solubility in the balanced salts solution,[2],insoluble
"O=c1cc(-c2ccccc2)oc2cc(OCC(O)CN3CCN(c4ccccc4)CC3)ccc12 (stereo not shown) [Example 12, 7-[3-(N-phenylpiperazinyl)-2-hydroxypropoxy]flavone]",activity in the rat anaphylaxis test,[1],active
same,solubility in the balanced salts solution,[2],insoluble
"Br.O=c1cc(-c2ccccc2)oc2cc(OCC(O)CNCCc3ccc(O)c(O)c3)ccc12 (stereo not shown) [Example 14, 7-[3-[(3,4-Dihydroxyphenethyl)amino]-2-hydroxypropoxy]flavone Hydrobromide]",percent inhibition of edema,"[1]; rat, 100 mg/kg ip in 1% Clearjel, paw volume 90 minutes post antigenic challenge",63%
same,IC50,5-lipoxygenase,~0.09 µM
"O=c1c(-c2ccccc2)c(-c2ccccc2)oc2cc(OCC(O)CNCCc3ccccc3)ccc12 (stereo not shown) [Example 18, 3-Phenyl-7-(3-phenethylamino-2-hydroxypropoxy)flavone]",activity in the rat anaphylaxis test,[1],active
same,solubility in the balanced salts solution,[2],insoluble
"O=c1c(-c2ccccc2)c(-c2ccccc2)oc2cc(OCC(O)CNc3ccccc3)ccc12 (stereo not shown) [Example 19, 3-Phenyl-7-(3-anilino-2-hydroxypropoxy)flavone]",activity in the Rat Anaphylaxis test,[1]; as hydrochloric acid salt,inactive
same,activity in the Rat Anaphylaxis test,[1]; free base form,active
